The results in this text go back to patent US7432400B2, “Biphenylene compounds” (Ciba Specialty Chemicals Corp., priority 2001, dated 2008).

Structures are written as SMILES. Where “and” joins values, the source holds several entries; their conditions need not be identical. Equal entries are not always repeated.

The first data set in a line: UV absorption (λmax) of the biphenyl compounds as UV filters. The data set is classed as physicochemical. The note with it: measured in acetonitrile 98/water 2. An excerpt: By way of example, the following Table lists a number of biphenyl compounds according to the invention together with their λmax values (measured in acetonitrile 98/water 2).
As for `CC(C)(C)C1CCC(=O)/C(=C/c2ccc(-c3ccc(/C=C4\CC(C(C)(C)C)CCC4=O)cc3)cc2)C1` (centres unmarked) [Example 1], the “λmax [nm]” value amounted to 357 nm.
For the molecule `CCCCCCC1CC/C(=C\c2ccc(-c3ccc(/C=C4\CCC(CCCCCC)C4=O)cc3)cc2)C1=O` (centres unmarked) [Example 4], the “λmax [nm]” value is 282 nm.
For the molecule `C/C(=C\c1ccc(-c2ccc(/C=C(\C)C(=O)c3ccccc3)cc2)cc1)C(=O)c1ccccc1` [Example 8], the “λmax [nm]” value came to 326 nm.
With `O=C(/C=C/c1ccc(-c2ccc(/C=C/C(=O)c3ccc(F)cc3)cc2)cc1)c1ccc(F)cc1` [Example 5], the “λmax [nm]” value is reported as 358 nm.
For the molecule `O=C1/C(=C/c2ccc(-c3ccc(/C=C4\CCc5ccccc5C4=O)cc3)cc2)CCc2ccccc21` [Example 2], the “λmax [nm]” value stood at 351 nm.
Turning to `O=C1OCCCC/C1=C\c1ccc(-c2ccc(/C=C3\CCCCOC3=O)cc2)cc1` [Example 10], the “λmax [nm]” value is recorded as 361 nm.
With `O=C1CCCCC/C1=C\c1ccc(-c2ccc(/C=C3\CCCCCC3=O)cc2)cc1` [Example 6], the “λmax [nm]” value was 337 nm.
In the case of `O=C(/C(=C/c1ccc(-c2ccc(/C=C(/C(=O)c3ccccc3)c3ccccc3)cc2)cc1)c1ccccc1)c1ccccc1` [Example 9], the “λmax [nm]” value turned out to be 326 nm.
On to `CC(=O)/C(=C\c1ccc(-c2ccc(/C=C(\C(C)=O)C(=O)OC(C)(C)C)cc2)cc1)C(=O)OC(C)(C)C` [Example 11], for which the “λmax [nm]” value was determined as 345 nm.
Consider `COc1ccc2c(c1)CC/C(=C\c1ccc(-c3ccc(/C=C4\CCc5cc(OC)ccc5C4=O)cc3)cc1)C2=O` [Example 3], for which the “λmax [nm]” value is reported as 351 nm.
Consider `O=C1CCCCCC/C1=C\c1ccc(-c2ccc(/C=C3\CCCCCCC3=O)cc2)cc1` [Example 7], for which the “λmax [nm]” value turned out to be 315 nm.

Experiment in the next data set: as above
It counts as physicochemical. The settings on record: in DMSO.
With `O=C1NC(=O)C(=Cc2ccc(-c3ccc(C=C4C(=O)NC(=O)NC4=O)cc3)cc2)C(=O)N1` [Example 15], the “λmax (DMSO)” value is listed as 396 nm.

The same data set, now with this note: in DMSO, at λmax 396 nm.
Turning to `O=C1NC(=O)C(=Cc2ccc(-c3ccc(C=C4C(=O)NC(=O)NC4=O)cc3)cc2)C(=O)N1` [Example 15], the “E (1%, 1 cm)” value was 1134.

The same data set, now with this note: in dioxane.
With `O=C1/C(=C/c2ccc(-c3ccc(/C=C4/C(=O)C5CCN4CC5)cc3)cc2)N2CCC1CC2` [Example 13], the “λmax (dioxane)” value is 235 nm and 350 nm.
